In general, IC50 refers to the point on the concentration scale where inhibition reaches its midpoint. Low readings indicate greater potency, high ones weaker potency. One may read the inhibition as the percentage by which the read-out fell short of the control.

Assay [1] deals with Mycobacterium tuberculosis. Put plainly: Antimycobacterial activity against drug-sensitive Mycobacterium tuberculosis H37Rv by microplate alamar blue assay. The format is functional, organism-based.
The subject of assay [2] is Mycobacterium tuberculosis. Briefly: Antimycobacterial activity against drug-sensitive Mycobacterium tuberculosis H37Rv at 6.250 ug/mL relative to isoniazid by microplate alamar blue assay. Type of assay: functional. Background: Alamar Blue is a resazurin reagent that responds to reducing activity.
Assay [3] concerns Mycobacterium tuberculosis. Briefly: Antimycobacterial activity against drug-sensitive Mycobacterium tuberculosis H37Rv at 3.125 ug/mL relative to isoniazid by microplate alamar blue assay. Type of assay: functional.
The test system of assay [4] is Mycobacterium tuberculosis. Put plainly: Antimycobacterial activity against drug-sensitive Mycobacterium tuberculosis H37Rv at 1000 ug/mL relative to isoniazid by microplate alamar blue assay. The format is functional.

`O=C(N/N=C/c1ccc(C(F)(F)F)cc1C(F)(F)F)c1cc(C23CC4CC(CC(C4)C2)C3)c2ccccc2n1` gave an IC50 in assay [1] of 6.46 µM. The compound further returned an inhibition at 6.25 µg/mL in assay [2] of 64%.

Compound `O=C(NNCCc1ccccc1)c1cc(C23CC4CC(CC(C4)C2)C3)c2ccccc2n1` had an IC50 in assay [1] of 7.94 µM. In assay [2], this compound had an inhibition at 6.25 µg/mL of 65%.

Compound `COc1ccc2ccccc2c1/C=N/NC(=O)c1cc(C23CC4CC(CC(C4)C2)C3)c2ccccc2n1` had an IC50 in assay [1] of 5.75 µM. At 6.25 µg/mL the inhibition in assay [2] was 69%.

Consider `O=C(NN(CCCc1ccccc1)CCCc1ccccc1)c1cc(C23CC4CC(CC(C4)C2)C3)c2ccccc2n1`, for which the IC50 in assay [1] was 13.8 µM. This compound also displayed an inhibition at 6.25 µg/mL in assay [2] of 45%.

In turn, `NNC(=O)c1cc(C23CC4CC(CC(C4)C2)C3)c2ccccc2n1` gave an IC50 in assay [1] of 0.195 µM. In addition, in assay [2], the inhibition at 6.25 µg/mL amounted to 99%.

For the compound `CCCN(CCC)NC(=O)c1cc(C23CC4CC(CC(C4)C2)C3)c2ccccc2n1`, the midpoint of inhibition in assay [1], the IC50, lay at 5.13 µM. The inhibition at 6.25 µg/mL in assay [2] was 75%.

In turn, `CC(C)/C=N/NC(=O)c1cc(C23CC4CC(CC(C4)C2)C3)c2ccccc2n1` showed an IC50 in assay [1] of 9.77 µM. Also, the inhibition at 6.25 µg/mL in assay [2] was 63%.

For the compound `CCCCCCNNC(=O)c1cc(C23CC4CC(CC(C4)C2)C3)c2ccccc2n1`, the IC50 in assay [1] was 4.79 µM. In addition, the inhibition at 6.25 µg/mL in assay [2] was found to be 77%.

Consider `CCCCCCN(CCCCCC)NC(=O)c1cc(C23CC4CC(CC(C4)C2)C3)c2ccccc2n1`, for which, in assay [1], half-maximal inhibition (IC50) was put at 7.24 µM. The inhibition at 6.25 µg/mL in assay [2] worked out at 65%.

The compound `CC(=O)NNC(=O)c1cc(C23CC4CC(CC(C4)C2)C3)c2ccccc2n1` gave an inhibition at 3.125 µg/mL in assay [3] of 99%. This compound had an IC50 in assay [1] of 0.0871 µM.

`O=C(N/N=C/c1ccnc2cc(Cl)ccc12)c1cc(C23CC4CC(CC(C4)C2)C3)c2ccccc2n1` had an IC50 in assay [1] of 0.661 µM. This compound also registered an inhibition at 6.25 µg/mL in assay [2] of 95%.

`CCCNNC(=O)c1cc(C23CC4CC(CC(C4)C2)C3)c2ccccc2n1` gave an IC50 in assay [1] of 3.8 µM. The same compound displayed an inhibition at 6.25 µg/mL in assay [2] of 82%.

With `O=C(N/N=C/c1ccnc2ccccc12)c1cc(C23CC4CC(CC(C4)C2)C3)c2ccccc2n1`, the inhibition at 3.125 µg/mL in assay [3] amounted to 99%. In addition, inhibition in assay [1] was half-maximal at 0.0692 µM (IC50).

Consider `O=C(NN(CCc1ccccc1)CCc1ccccc1)c1cc(C23CC4CC(CC(C4)C2)C3)c2ccccc2n1`, for which, in assay [1], half-maximal inhibition (IC50) required 9.55 µM. In assay [2], this compound displayed an inhibition at 6.25 µg/mL of 55%.

Consider `O=C(N/N=C/c1c(F)c(F)c(F)c(F)c1F)c1cc(C23CC4CC(CC(C4)C2)C3)c2ccccc2n1`, for which half-maximal inhibition in assay [1] (IC50) was put at 66.1 µM. For the same compound, in assay [2], testing at 6.25 µg/mL gave an inhibition of 16%.

Turning to `O=C(N/N=C/c1ccccn1)c1cc(C23CC4CC(CC(C4)C2)C3)c2ccccc2n1`, half-maximal inhibition in assay [1] (IC50) required 2.88 µM. Testing at 6.25 µg/mL in assay [2] gave an inhibition of 84%.

Compound `O=C(NNc1ccccc1F)c1cc(C23CC4CC(CC(C4)C2)C3)c2ccccc2n1` gave an IC50 in assay [1] of 0.151 µM. Further, in assay [2], the inhibition at 6.25 µg/mL is 99%.

Turning to `O=C(N/N=C/c1ccc[nH]1)c1cc(C23CC4CC(CC(C4)C2)C3)c2ccccc2n1`, testing at 3.125 µg/mL in assay [3] gave an inhibition of 99%. For the same compound, in assay [1], inhibition was half-maximal at 0.0794 µM (IC50).

Consider `O=C(N/N=C/c1ccncc1)c1cc(C23CC4CC(CC(C4)C2)C3)c2ccccc2n1`, for which, in assay [1], half-maximal inhibition (IC50) was put at 6.46 µM. This compound also came in with an inhibition at 6.25 µg/mL in assay [2] of 70%.

In assay [1], `CCC(C)NNC(=O)c1cc(C23CC4CC(CC(C4)C2)C3)c2ccccc2n1` (stereo not drawn) gave an IC50 of 0.513 µM. In addition, in assay [2], the inhibition at 6.25 µg/mL turned out to be 97%.

On to `O=C(N/N=C/c1cccs1)c1cc(C23CC4CC(CC(C4)C2)C3)c2ccccc2n1`, for which at 3.125 µg/mL the inhibition in assay [3] was 99%. This compound also gave an IC50 in assay [1] of 0.0759 µM.

As for `O=C(NNCCCc1ccccc1)c1cc(C23CC4CC(CC(C4)C2)C3)c2ccccc2n1`, the IC50 in assay [1] is 14.1 µM. Further, in assay [2], testing at 6.25 µg/mL gave an inhibition of 50%.

As to `O=CNNC(=O)c1cc(C23CC4CC(CC(C4)C2)C3)c2ccccc2n1`, the midpoint of inhibition in assay [1], the IC50, lay at 75.9 µM. The same compound came in with an inhibition at 6.25 µg/mL in assay [2] of 19%.

`O=C(N/N=C/c1ccc(O)cc1)c1cc(C23CC4CC(CC(C4)C2)C3)c2ccccc2n1` had an IC50 in assay [1] of 5.37 µM. In addition, 6.25 µg/mL produced 73% inhibition in assay [2].

In turn, `C=CCN(CC=C)NC(=O)c1cc(C23CC4CC(CC(C4)C2)C3)c2ccccc2n1` had an IC50 in assay [1] of 55 µM. The compound also came in with an inhibition at 6.25 µg/mL in assay [2] of 22%.

In the case of `O=C(NNc1cccc(F)c1)c1cc(C23CC4CC(CC(C4)C2)C3)c2ccccc2n1`, at 3.125 µg/mL the inhibition in assay [3] was 99%. In assay [1], this compound gave an IC50 of 0.0759 µM.

In the case of `COc1ccc(/C=N/NC(=O)c2cc(C34CC5CC(CC(C5)C3)C4)c3ccccc3n2)c2ccccc12`, the IC50 in assay [1] was 9.55 µM. In assay [2], this compound displayed an inhibition at 6.25 µg/mL of 57%.

Regarding `O=C(NNC1CCCC1)c1cc(C23CC4CC(CC(C4)C2)C3)c2ccccc2n1`, in assay [3], the inhibition at 3.125 µg/mL was determined as 99%. In assay [1], this compound gave an IC50 of 0.0813 µM.

For `CCCCN(CCCC)NC(=O)c1cc(C23CC4CC(CC(C4)C2)C3)c2ccccc2n1`, 8.13 µM corresponded to half-maximal inhibition in assay [1] (IC50). In assay [2], this compound registered an inhibition at 6.25 µg/mL of 64%.

In assay [3], `O=C(NNC1CCCCC1)c1cc(C23CC4CC(CC(C4)C2)C3)c2ccccc2n1` displayed an inhibition at 3.125 µg/mL of 99%. In assay [1], the IC50 is 0.0776 µM.

The compound `O=C(N/N=C/c1ccccc1Cl)c1cc(C23CC4CC(CC(C4)C2)C3)c2ccccc2n1` had an IC50 in assay [1] of 0.0229 µM. This compound registered an inhibition at 1000 µg/mL in assay [4] of 99%.

`O=C(NN(C(=O)c1ccccc1)C(=O)c1ccccc1)c1cc(C23CC4CC(CC(C4)C2)C3)c2ccccc2n1` gave an IC50 in assay [1] of 11.2 µM. The compound also returned an inhibition at 6.25 µg/mL in assay [2] of 51%.

With `O=C(NNc1ccc(F)cc1)c1cc(C23CC4CC(CC(C4)C2)C3)c2ccccc2n1`, in assay [1], half-maximal inhibition (IC50) required 1.12 µM. Also, 6.25 µg/mL produced 93% inhibition in assay [2].

In assay [1], `CC(C)NNC(=O)c1cc(C23CC4CC(CC(C4)C2)C3)c2ccccc2n1` gave an IC50 of 16.6 µM. Further, the inhibition at 6.25 µg/mL in assay [2] was determined as 51%.

Take `COc1ccc(/C=N/NC(=O)c2cc(C34CC5CC(CC(C5)C3)C4)c3ccccc3n2)cc1`: inhibition in assay [1] was half-maximal at 56.2 µM (IC50). This compound also registered an inhibition at 6.25 µg/mL in assay [2] of 20%.

`O=C(N/N=C/c1ccccc1)c1cc(C23CC4CC(CC(C4)C2)C3)c2ccccc2n1` showed an inhibition at 3.125 µg/mL in assay [3] of 99%. This compound also had an IC50 in assay [1] of 0.0776 µM.

Take `CCCCNNC(=O)c1cc(C23CC4CC(CC(C4)C2)C3)c2ccccc2n1`: the IC50 in assay [1] is 13.5 µM. Also, the inhibition at 6.25 µg/mL in assay [2] is 55%.

Consider `CC/C=N/NC(=O)c1cc(C23CC4CC(CC(C4)C2)C3)c2ccccc2n1`, for which the 50% inhibitory concentration (IC50) in assay [1] was 7.76 µM. The same compound came in with an inhibition at 6.25 µg/mL in assay [2] of 69%.

Compound `O=C(N/N=C/c1c2ccccc2cc2ccccc12)c1cc(C23CC4CC(CC(C4)C2)C3)c2ccccc2n1` gave an IC50 in assay [1] of 6.31 µM. This compound had an inhibition at 6.25 µg/mL in assay [2] of 66%.

In turn, `O=C(N/N=C/c1ccco1)c1cc(C23CC4CC(CC(C4)C2)C3)c2ccccc2n1` showed an inhibition at 3.125 µg/mL in assay [3] of 99%. Also, the IC50 in assay [1] was 0.0794 µM.

`CC(C)(C)/C=N/NC(=O)c1cc(C23CC4CC(CC(C4)C2)C3)c2ccccc2n1` showed an IC50 in assay [1] of 145 µM. 6.25 µg/mL produced 10% inhibition in assay [2].

In assay [1], `CN(C)c1ccc(/C=N/NC(=O)c2cc(C34CC5CC(CC(C5)C3)C4)c3ccccc3n2)c2ccccc12` showed an IC50 of 3.31 µM. In assay [2], this compound returned an inhibition at 6.25 µg/mL of 79%.

Consider `O=C(N/N=C/c1cccnc1)c1cc(C23CC4CC(CC(C4)C2)C3)c2ccccc2n1`, for which inhibition in assay [1] was half-maximal at 13.5 µM (IC50). Besides, the inhibition at 6.25 µg/mL in assay [2] stood at 53%.

Take `O=C(N/N=C/c1cccc(O)c1)c1cc(C23CC4CC(CC(C4)C2)C3)c2ccccc2n1`: the midpoint of inhibition in assay [1], the IC50, lay at 0.148 µM. In assay [2], this compound had an inhibition at 6.25 µg/mL of 99%.

These data come from ChEMBL document CHEMBL1144566, “Synthesis, anti-tuberculosis activity, and 3D-QSAR study of 4-(adamantan-1-yl)-2-substituted quinolines” (Bioorg Med Chem, 2007).
